# Residues, ends and D or L forms follow the SMILES beside them.
# Legend:
# [1] = system: patients with diabetes mellitus; assay: Clinical application in patients with diabetes mellitus (Example 8); type: in vivo, human; conditions: for blood glucose level on an empty stomach: 10 μg i.m. 10 days
# Description: The investigation was carried out in 36 patients aged from 16 to 83 years (7 men, 29 women). In 23 patients there was diagnosed type 1 diabetes, in 13 patients—type 2 diabetes. The disease duration varied from 1 year to 30 years. 32 patients received insulin. The majority of the patients suffering diabetes mellitus entered the hospital decompensated. Blood glucose level in these patients on an empty stomach oscillated from […]; the glycosylated haemoglobin—from 7.8 to 12.7%. All the patients were prescribed a rigid diet. All the patients were stratified randomly into 2 groups, with respect to age, sex, duration and stage of the disease (Table 7). Alongside with standard method of treatment 16 patients were prescribed Lys-Glu-Asp-Trp-NH2 [SEQ ID NO:1] tetrapeptide in dose of 10 μg (in 1 ml of 0.9% NaCl solution) intramuscularly once a day for 10 days. 4 patients suffering type 2 diabetes mellitus were prescribed together with standard treatment course Lys-Glu-Asp-Trp-NH2 [SEQ ID NO:1] tetrapeptide in dose of 100 μg (1 tablet) twice a day before meals during 10 days. Patients of the control group were administered with 1 ml of 0.9% of NaCl solution as a placebo following the same scheme.
# [2] = system: rats with alloxan diabetes; assay: Glucose tolerance test (sugar curve) in alloxan diabetes rats (Example 6); type: in vivo, rat; conditions: for glucose concentration in blood, glucose tolerance test: in mg/dL
# Description: The study was conducted on 13 male rats, enrolled in the previous tests (treatment variants—44 days after completion of tetrapeptide Lys-Glu-Asp-Trp-NH2 [SEQ ID NO:1] administration). 7 healthy rats with the same body weight constituted a separate group. All the animals were administered intravenously with 1 ml of 2% glucose solution, after that glucose concentration in their blood was estimated.
# [3] = of 16 insulin-treated patients, 10 μg i.m. once a day for 10 days
# [4] = tablets, patients treated with oral anti-diabetic medicine
# [5] = 30 min after glucose administration
# [6] = 60 min after glucose administration
# [7] = 120 min after glucose administration
compound,measurement,setting,value
"NCCCC[C@H](N)C(=O)N[C@@H](CCC(=O)O)C(=O)N[C@@H](CC(=O)O)C(=O)N[C@@H](Cc1c[nH]c2ccccc12)C(N)=O [Lys-Glu-Asp-Trp-NH2, lysyl-glutamyl-aspartyl-tryptophane amid] (H-KEDW-NH2)",decrease of daily insulin dose as compared to the initial level,[1]; Case No. 1,26 units
same,coagulogram indices,"[1]; Case No. 1, at discharge",pronounced improvement
same,Daily dose of insulin,"[1]; Case No. 1, at discharge, on admission 82 units",56 units
same,blood glucose level on an empty stomach,"[1]; Case No. 1, type 2 diabetes, discharge on the 18th day, on admission 10 μmol/l",5.9 mM
same,decrease of daily insulin dose as compared to the initial level,[1]; Case No. 2,8 units
same,Daily norm of insulin,"[1]; Case No. 2, at discharge, on admission 40 units",32 units
same,blood glucose level on an empty stomach,"[1]; Case No. 2, type 1 diabetes, discharge on the 15th day, on admission 17.8 μmol/l",3.4 mM
same,reduction of the dose of diabeton,[1]; Case No. 3,two-fold
same,blood glucose level,"[1]; Case No. 3, after the completion of the treatment course",remained within the norm
same,glucose level on an empty stomach,"[1]; Case No. 3, type 2 diabetes, second day, 100 μg tablet twice a day with 2 diabeton tablets, on admission 11 μmol/l",6 mM
same,patients of the main group with decrease of insulin dose,[1]; none in control group,50%
same,"Decreased insulin dose necessary to achieve compensation, number of patients",[1]; [3],8
same,"Increased insulin dose necessary to achieve compensation, number of patients",[1]; [3],2
same,"The same insulin dose necessary to achieve compensation, number of patients",[1]; [3],6
same,reduction of the insulin daily dose,"[1]; on average, in 8 patients out of 16",8 units
same,reduction of the dose of insulin,[1]; patients who received tetrapeptide in tablets daily,25 units
same,compensation,[1]; [4],full compensation
same,reduction of the dose of oral anti-diabetic preparations,[1]; [4],two-fold
same,insulin dose increase to achieve compensation,[1]; the 1st patient,4 units
same,insulin dose increase to achieve compensation,[1]; the 2nd patient,14 units
same,glucose concentration compared to the initial level (100%),[2]; 5 min after glucose administration,142.9%
same,"glucose concentration in blood, glucose tolerance test",[2]; 5 min after glucose administration (1 ml of 2% i.v.),301.2 ± 10.5
same,glucose concentration compared to the initial level (100%),[2]; [5],97.3%
same,"glucose concentration in blood, glucose tolerance test",[2]; [5],205.1 ± 11.8
same,glucose concentration compared to the initial level (100%),[2]; [6],95.6%
same,"glucose concentration in blood, glucose tolerance test",[2]; [6],201.5 ± 13.2
same,glucose concentration compared to the initial level (100%),[2]; [7],77.9%
same,"glucose concentration in blood, glucose tolerance test",[2]; [7],164.2 ± 12.8
same,"glucose concentration in blood, glucose tolerance test","[2]; initial level, 44 days after course completion",210.8 ± 9.3
